Consider 4 compounds from paper PMC6047675, “Neutral metalloaminopeptidases APN and MetAP2 as newly discovered anticancer molecular targets of actinomycin D and its simple analogs” (Oncotarget, 2018).

Structures are written as SMILES. Read-outs that look alike come from different tables or passages of the source. Starred links: 1 amine or outer side, 2 acyl side, 3 side chain; linkers in the order of their positions; H or OH if unused. Positions of bridges follow the written chain, without caps; N, C: chain ends. Non-standard residues stand in square brackets, D forms with d. Residues, ends and D or L forms follow the SMILES beside them. Chains are numbered I, II in the order given. Actinocin(1to9) = Cc1c2oc3c(C)ccc(C(=O)[*:2])c3nc-2c(C(=O)[*:1])c(N)c1=O; Actinocin(9to1) = Cc1c2oc3c(C)ccc(C(=O)[*:1])c3nc-2c(C(=O)[*:2])c(N)c1=O; Pro(4-oxo) = O=C1CN[C@H](C(=O)O)C1; NMeV = CN[C@H](C(=O)O)C(C)C; Sar = CNCC(=O)O

Usually IC50 stands for the concentration that inhibits the measured activity by half. Usually Ki stands for a dissociation constant, usually derived from enzyme kinetics or from competition with a known ligand.

Data set [1] concerns the target T1, human alanine aminopeptidase (HsAPN) (Homo sapiens, UniProt P15144).
T1 construct: purchased R&D Systems
The data set is described as follows: Inhibition of recombinant human APN, fluorogenic substrate Ala-AMC. The format is biochemical. Conditions: for mechanism of inhibition of HsAPN: from Lineweaver-Burk and Dixon plots. An excerpt:
(§1) Actinomycin D was purchased as a lyophilized powder from Sigma-Aldrich (Poznan, Poland), Actinomycin X2 was purchased form Adipogen (Liestal, Switzerland). Actinocine and Questiomycin A were synthesized according to a previously described procedure. Recombinant human APN and MetAP2 were purchased as a lyophilized powder from R&D Systems (Minneapolis, USA). Fluorogenic substrates Ala-AMC (L-alanine-4-methylcoumaryl-7-amide) and Met-AMC (L-methionine-4-methylcoumaryl-7-amide) were purchased from PeptaNova (Sandhausen, Germany). Spectrofluorometry was performed on a Spectra MAX Gemini EM fluorimeter (Molecular Devices, Sunnyvale, USA) in a 96-well plate format (Excitation = 355 nm, Emission = 460 nm). Calculations of the kinetic parameters were performed using the SoftMax Pro, GraphPad Prism and Microsoft Excel programs.
(§2) Recombinant human APN enzyme was dissolved in 50 mM Tris-HCl buffer (pH = 7.0) and used directly in the kinetic experiments. Recombinant human MetAP2 was obtained as a lyophilized powder from R&D Systems. The enzyme was dissolved in 100 mM Tris-maleate buffer containing 0.1 mM CoCl2, 100 mM NaCl and 0.075 % v/v albumin at pH = 7.5 and incubated for 30 minutes. After this activation, the enzyme was used directly in the kinetic experiments.
(§3) The inhibitors were screened against human APN and human MetAP2 at 37°C in the assay buffer as described above. For the steady-state measurements, the enzymes were preincubated for 30-60 min at 37°C with an inhibitor before adding the substrate (Ala-AMC, 40 μM for human APN or Met-AMC and 50 μM for MetAP2) to the wells. For the initial state measurements, the enzymes were preincubated for 15-30 min at 37°C before adding the substrate and inhibitor to the wells. The following conditions were used: (1) total volume 100 μL, (2) eight different inhibitor concentrations, and (3) enzyme concentration of 0.3 nM for human APN and 1 nM for MetAP2. The release of the AMC fluorophore was monitored. The linear portion of the progress curve was used to calculate the velocity. hPhePCH2Phe for APN and ebselen for MetAP2 were used as a positive control. The inhibition mechanism was determined from the Lineweaver-Burk and Dixon plot (Figure 2B and 2D). The IC50 values were calculated from the reaction velocity to inhibitor concentration plot fitted to the equation log[I] vs. response. The Ki values were equal to the IC50 for non-competitive inhibitors and were calculated for competitive inhibitors using the following equation: Ki = (IC50-[E]/2)/ (1 + ([S]/Km)), where the IC50 is the concentration of the inhibitor that effected 50% inhibition, [S] and Km are the substrate concentration and Michaelis constant in the absence of inhibitor, respectively, and [E] is the concentration of the enzyme.

The target in data set [2] is T2, human methionine aminopeptidase type 2 (HsMetAP2) (Homo sapiens, UniProt P50579).
T2 construct: purchased R&D Systems
Briefly: Inhibition of recombinant human MetAP2, fluorogenic substrate Met-AMC. The format is biochemical. The settings on record: for mechanism of inhibition of HsMetAP2: from Lineweaver-Burk and Dixon plots.
From the text: as §1, §2, §3

Data set [3] concerns human acute B- and T-lymphoblastic leukemia, cervix carcinoma and larynx carcinoma. Set-up: method as in PMID 12431048. Conditions: read-out: IC50 cytotoxicity; cited from earlier work.
In data set [4] the test system is human leukemia cell line HL-60. Conditions: read-out: LC50 (lethal concentration for a half of population), cytotoxicity HL-60; cited from earlier work.
The mark [5] stands for this setting: TRIS buffer, 37°C, average with standard deviation, at least three experiments, read-out: IC50 HsAPN.
Where [6] appears, read: TRIS buffer, 37°C, calculated by Cheng-Prusoff equations for non-competitive and competitive inhibitors, average with standard deviation, at least three experiments, read-out: Ki HsAPN.
The mark [7] stands for this setting: more effective than Actinomycin D/X2.
Where [8] appears, read: TRIS buffer, 37°C, average with standard deviation, at least three experiments, read-out: IC50 HsMetAP.
Setting [9] is: TRIS buffer, 37°C, calculated by Cheng-Prusoff equations for non-competitive and competitive inhibitors, average with standard deviation, at least three experiments, read-out: Ki HsMetAP.

T2 sequence (P50579 whole entry): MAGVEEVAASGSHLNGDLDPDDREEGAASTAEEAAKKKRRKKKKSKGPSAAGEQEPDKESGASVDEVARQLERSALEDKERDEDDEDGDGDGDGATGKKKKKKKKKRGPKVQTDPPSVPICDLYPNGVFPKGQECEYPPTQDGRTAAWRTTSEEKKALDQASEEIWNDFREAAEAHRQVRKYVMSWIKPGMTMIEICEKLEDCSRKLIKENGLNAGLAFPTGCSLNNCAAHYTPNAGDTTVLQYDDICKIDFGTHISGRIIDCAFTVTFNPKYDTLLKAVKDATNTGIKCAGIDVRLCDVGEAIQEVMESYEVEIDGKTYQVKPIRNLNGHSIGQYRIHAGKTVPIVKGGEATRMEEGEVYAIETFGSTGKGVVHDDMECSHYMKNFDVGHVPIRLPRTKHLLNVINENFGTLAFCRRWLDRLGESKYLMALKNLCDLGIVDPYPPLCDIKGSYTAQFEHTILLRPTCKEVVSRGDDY
T1 sequence (P15144 whole entry): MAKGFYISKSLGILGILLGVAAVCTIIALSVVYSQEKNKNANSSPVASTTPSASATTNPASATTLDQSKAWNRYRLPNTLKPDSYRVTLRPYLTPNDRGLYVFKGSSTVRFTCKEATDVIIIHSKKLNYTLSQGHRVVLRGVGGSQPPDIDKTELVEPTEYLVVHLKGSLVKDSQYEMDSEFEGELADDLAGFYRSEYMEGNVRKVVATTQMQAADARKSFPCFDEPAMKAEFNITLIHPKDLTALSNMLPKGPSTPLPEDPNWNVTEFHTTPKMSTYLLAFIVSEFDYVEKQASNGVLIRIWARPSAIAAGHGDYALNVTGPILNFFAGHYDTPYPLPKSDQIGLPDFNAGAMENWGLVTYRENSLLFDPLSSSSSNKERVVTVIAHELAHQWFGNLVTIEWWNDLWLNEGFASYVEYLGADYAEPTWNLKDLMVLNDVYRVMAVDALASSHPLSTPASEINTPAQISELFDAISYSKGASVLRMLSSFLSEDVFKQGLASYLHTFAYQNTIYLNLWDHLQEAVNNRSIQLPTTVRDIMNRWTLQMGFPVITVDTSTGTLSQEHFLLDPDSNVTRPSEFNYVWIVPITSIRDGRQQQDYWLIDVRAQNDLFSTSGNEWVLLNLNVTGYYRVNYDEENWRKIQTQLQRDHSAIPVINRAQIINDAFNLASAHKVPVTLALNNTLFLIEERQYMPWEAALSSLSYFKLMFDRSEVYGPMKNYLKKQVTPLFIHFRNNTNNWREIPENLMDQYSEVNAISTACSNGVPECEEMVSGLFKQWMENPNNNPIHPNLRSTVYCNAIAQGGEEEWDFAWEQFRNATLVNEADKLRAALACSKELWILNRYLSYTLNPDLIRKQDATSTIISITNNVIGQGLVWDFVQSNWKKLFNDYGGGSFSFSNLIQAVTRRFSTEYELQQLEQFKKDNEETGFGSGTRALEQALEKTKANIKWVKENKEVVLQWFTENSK

Turning to `Cc1c2oc3c(C)ccc(C(=O)O)c3nc-2c(C(=O)O)c(N)c1=O` [Actinocin], the IC50 was 7.25 ± 1.2 µM in data set [1] (setting [5]) and 2.34 ± 0.62 µM in data set [2] (setting [8]). Further, the figures for the Ki in data set [1] (setting [6]) and in data set [2] (setting [9]) were 6.04 ± 0.51 µM and 2.04 ± 0.23 µM, respectively. Also, the “mechanism of inhibition of HsAPN” value in data set [1] was “competitive”. Moreover, the “effectiveness relative to Actinomycin D/X2, HsAPN” value in data set [1] (setting [7]) is “twice as effective”. Further, the “mechanism of inhibition of HsMetAP2” value in data set [2] is “competitive”. The “effectiveness relative to Actinomycin D/X2, HsMetAP2” value in data set [2] (setting [7]) was “four times as effective”.

With `Cc1c2oc3c(C)ccc(C(=O)N[C@@H]4C(=O)N[C@H](C(C)C)C(=O)N5CCC[C@H]5C(=O)N(C)CC(=O)N(C)[C@@H](C(C)C)C(=O)O[C@@H]4C)c3nc-2c(C(=O)N[C@@H]2C(=O)N[C@H](C(C)C)C(=O)N3CCC[C@H]3C(=O)N(C)CC(=O)N(C)[C@@H](C(C)C)C(=O)O[C@@H]2C)c(N)c1=O` [Actinomycin D] (I: T[dV]P[Sar][NMeV] / II: T[dV]P[Sar][NMeV]; ester I:1-I:C, II:1-II:C; linker I:N-II:N via Actinocin(9to1)), in data set [3], the IC50 is 0.001 to 0.008 µM. Further, in data set [1], the IC50 worked out at 11.9 ± 1.1 µM, the Ki is 11.9 ± 1.1 µM and the “mechanism of inhibition of HsAPN” value is “non-competitive”. In data set [2], the half-maximal inhibitory concentration (IC50) was 7.37 ± 0.56 µM, the Ki is 7.37 ± 0.56 µM and the “mechanism of inhibition of HsMetAP2” value is “non-competitive”.

For `Cc1c2oc3c(C)ccc(C(=O)N[C@@H]4C(=O)N[C@H](C(C)C)C(=O)N5CCC[C@H]5C(=O)N(C)CC(=O)N(C)[C@@H](C(C)C)C(=O)O[C@@H]4C)c3nc-2c(C(=O)N[C@@H]2C(=O)N[C@H](C(C)C)C(=O)N3CC(=O)C[C@H]3C(=O)N(C)CC(=O)N(C)[C@@H](C(C)C)C(=O)O[C@@H]2C)c(N)c1=O` [Actinomycin X2, reference compound] (I: T[dV][Pro(4-oxo)][Sar][NMeV] / II: T[dV]P[Sar][NMeV]; ester I:1-I:C, II:1-II:C; linker I:N-II:N via Actinocin(1to9)), the CC50 in data set [4] was 0.008 µM. In addition, in data set [1], the IC50 was determined as 12.2 ± 1.4 µM, the Ki came out at 12.2 ± 1.4 µM and the “mechanism of inhibition of HsAPN” value is “non-competitive”. In data set [2], the IC50 was found to be 8.33 ± 0.75 µM, the Ki came out at 8.33 ± 0.75 µM and the “mechanism of inhibition of HsMetAP2” value was “non-competitive”.

For the compound `Nc1cc2nc3ccccc3oc-2cc1=O` [Questiomycin A], the values for the IC50 in data set [3], in data set [1] (setting [5]) and in data set [2] (setting [8]) were 1 to 3 µM, 63 ± 3.2 µM and 34.9 ± 3.2 µM, respectively. In addition, the Ki is 52.5 ± 2.7 µM in data set [1] (setting [6]) and 30.4 ± 3.2 µM in data set [2] (setting [9]). Besides, in data set [1], the “mechanism of inhibition of HsAPN” value was “competitive”. In addition, the “times less effective, HsAPN” value in data set [1] (in contrast to Actinocin) worked out at 10 times. Moreover, in data set [1] (lead compound = Actinomycin D), the “decrease in activity for HsAPN compared to the lead compound” value was “five-fold”. Moreover, the “mechanism of inhibition of HsMetAP2” value in data set [2] is “competitive”. The “times less effective, HsMetAP2” value in data set [2] (in contrast to Actinocin) is on record as 10 times. The “decrease in activity for HsMetAP2 compared to the lead compound” value in data set [2] (lead compound = Actinomycin D) is listed as “five-fold”.
